Results taken from US9861616B2, “Methods for treating respiratory diseases and formulations therefor” (priority 2013, dated 2018).
Converted amounts (≈) assume the structure as drawn.

Tests used:
P. aeruginosa PA12 = assay: MIC by microdilution with PaβN or EGTA, clinical isolate overexpressing efflux pumps; type: cell-based; details: Pseudomonas aeruginosa
How it was run: (§1)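 Microdilution MICs against P. aeruginosa, including reference PAO1 and efflux-overexpressing clinical PA12, in cation-adjusted Mueller-Hinton broth or RPMI with 10% fetal calf serum, or MH broth with increasing serum. PaβN (50 mg/L) served as efflux inhibitor and EGTA (5 mM) as outer-membrane disruptor.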

P. aeruginosa (PA) = assay: MIC by microdilution, 36 clinical and laboratory strains with known efflux phenotype; type: cell-based
How it was run: as §1

IL-8 (CXCL8) release = assay: LPS-induced IL-8 (CXCL8) release in PMA-differentiated U937 cells (ELISA); type: cell-based, human
[1] = system: MRSA strains from CF patients; assay: Microdilution MICs against 40 MRSA strains from CF patients; type: cell-based, S. aureus; details: Staphylococcus aureus, 40 MRSA strains from CF patients

## CC[C@H]1OC(=O)[C@H](C)[C@@H](O[C@H]2C[C@@](C)(OC)[C@@H](O)[C@H](C)O2)[C@H](C)[C@@H](O[C@@H]2O[C@H](C)C[C@H](N(C)C)[C@H]2O)[C@](C)(OC)C[C@@H](C)C(=O)[C@H](C)[C@@H](O)[C@]1(C)O [CLR, clarithromycin]
P. aeruginosa PA12; PA12, PA12, CA-MHB, PaβN 50 mg/L
  MIC: 16 µg/mL (≈ 21.4 µM)
P. aeruginosa PA12; PA12, PA12, CA-MHB, control conditions (CT)
  MIC: 512 µg/mL (≈ 685 µM)
P. aeruginosa PA12; PA12, PA12, RPMI, EGTA 5 mM
  MIC: 2 µg/mL (≈ 2.67 µM)
P. aeruginosa PA12; PA12, PA12, RPMI, PaβN 50 mg/L
  MIC: 16 µg/mL (≈ 21.4 µM)
P. aeruginosa PA12; PA12, PA12, RPMI, control conditions (CT)
  MIC: 16 µg/mL (≈ 21.4 µM)
P. aeruginosa (PA); strain 1, efflux AB+, MHB
  MIC: 512 µg/mL (≈ 685 µM)
P. aeruginosa (PA); strain 1, efflux AB+, RPMI
  MIC: 32 µg/mL (≈ 42.8 µM)
P. aeruginosa (PA); strain 2, efflux CD+, MHB
  MIC: 512 µg/mL (≈ 685 µM)
P. aeruginosa (PA); strain 2, efflux CD+, RPMI
  MIC: 128 µg/mL (≈ 171 µM)
P. aeruginosa (PA); strain 3, efflux EF+, RPMI
  MIC: 16 µg/mL (≈ 21.4 µM)
P. aeruginosa (PA); strain 4, efflux XY+, MHB
  MIC: 512 µg/mL (≈ 685 µM)
P. aeruginosa (PA); strain 4, efflux XY+, RPMI
  MIC: 32 µg/mL (≈ 42.8 µM)
P. aeruginosa (PA); strain 11, efflux AB + CD+, MHB
  MIC: 512 µg/mL
P. aeruginosa (PA); strain 11, efflux AB + CD+, RPMI
  MIC: 16 µg/mL
P. aeruginosa (PA); strain 12, efflux AB + CD + EF + XY+, MHB
  MIC: 512 µg/mL
P. aeruginosa (PA); strain 12, efflux AB + CD + EF + XY+, RPMI
  MIC: 16 µg/mL
P. aeruginosa (PA); strain 16, efflux AB + XY+, MHB
  MIC: 512 µg/mL
P. aeruginosa (PA); strain 16, efflux AB + XY+, RPMI
  MIC: 64 µg/mL
P. aeruginosa (PA); strain 21, efflux AB+, MHB
  MIC: 512 µg/mL (≈ 685 µM)
P. aeruginosa (PA); strain 21, efflux AB+, RPMI
  MIC: 64 µg/mL (≈ 85.6 µM)
P. aeruginosa (PA); strain 22, efflux XY+, MHB
  MIC: 512 µg/mL (≈ 685 µM)
P. aeruginosa (PA); strain 22, efflux XY+, RPMI
  MIC: 32 µg/mL (≈ 42.8 µM)
P. aeruginosa (PA); strain 40, efflux EF+, RPMI
  MIC: 16 µg/mL (≈ 21.4 µM)
P. aeruginosa (PA); strain 41, efflux CD+, MHB
  MIC: 512 µg/mL (≈ 685 µM)
P. aeruginosa (PA); strain 41, efflux CD+, RPMI
  MIC: 64 µg/mL (≈ 85.6 µM)
P. aeruginosa (PA); strain 48, efflux CD + EF + XY+, MHB
  MIC: 512 µg/mL
P. aeruginosa (PA); strain 48, efflux CD + EF + XY+, RPMI
  MIC: 64 µg/mL
P. aeruginosa (PA); strain 49, efflux CD + EF + XY+, MHB
  MIC: 512 µg/mL
P. aeruginosa (PA); strain 49, efflux CD + EF + XY+, RPMI
  MIC: 32 µg/mL
P. aeruginosa (PA); strain 63, efflux AB + EF + XY+, MHB
  MIC: 512 µg/mL
P. aeruginosa (PA); strain 63, efflux AB + EF + XY+, RPMI
  MIC: 32 µg/mL
P. aeruginosa (PA); strain 68, efflux AB + XY+, MHB
  MIC: 512 µg/mL
P. aeruginosa (PA); strain 68, efflux AB + XY+, RPMI
  MIC: 64 µg/mL
P. aeruginosa (PA); strain 133, efflux EF + XY+, MHB
  MIC: 512 µg/mL
P. aeruginosa (PA); strain 133, efflux EF + XY+, RPMI
  MIC: 64 µg/mL
P. aeruginosa (PA); strain 156, efflux EF + XY+, MHB
  MIC: 512 µg/mL
P. aeruginosa (PA); strain 156, efflux EF + XY+, RPMI
  MIC: 32 µg/mL
P. aeruginosa (PA); strain 168B, efflux CD + XY+, MHB
  MIC: 512 µg/mL
P. aeruginosa (PA); strain 207, efflux AB + EF + XY+, MHB
  MIC: 512 µg/mL
P. aeruginosa (PA); strain 207, efflux AB + EF + XY+, RPMI
  MIC: 64 µg/mL
P. aeruginosa (PA); strain 266B, efflux AB + CD+, MHB
  MIC: 512 µg/mL
P. aeruginosa (PA); strain 266B, efflux AB + CD+, RPMI
  MIC: 64 µg/mL
P. aeruginosa (PA); strain 333A, efflux AB + EF+, MHB
  MIC: 512 µg/mL
P. aeruginosa (PA); strain 333A, efflux AB + EF+, RPMI
  MIC: 64 µg/mL
P. aeruginosa (PA); strain 335, efflux AB + EF+, MHB
  MIC: 512 µg/mL
P. aeruginosa (PA); strain 335, efflux AB + EF+, RPMI
  MIC: 64 µg/mL
P. aeruginosa (PA); strain 391, efflux EF−, RPMI
  MIC: 16 µg/mL (≈ 21.4 µM)
P. aeruginosa (PA); strain 392, efflux CD−, RPMI
  MIC: 16 µg/mL (≈ 21.4 µM)
P. aeruginosa (PA); strain 394, efflux XY−, MHB
  MIC: 512 µg/mL (≈ 685 µM)
P. aeruginosa (PA); strain 394, efflux XY−, RPMI
  MIC: 32 µg/mL (≈ 42.8 µM)
P. aeruginosa (PA); strain 395, efflux HI−, RPMI
  MIC: 32 µg/mL (≈ 42.8 µM)
P. aeruginosa (PA); strain 396, ompH−, MHB
  MIC: 64 µg/mL (≈ 85.6 µM)
P. aeruginosa (PA); strain 396, ompH−, RPMI
  MIC: 16 µg/mL (≈ 21.4 µM)
P. aeruginosa (PA); strain 397, efflux AB−, MHB
  MIC: 16 µg/mL (≈ 21.4 µM)
P. aeruginosa (PA); strain 397, efflux AB−, RPMI
  MIC: 2 µg/mL (≈ 2.67 µM)
P. aeruginosa (PA); strain 398, efflux CD−, MHB
  MIC: 32 µg/mL (≈ 42.8 µM)
P. aeruginosa (PA); strain 398, efflux CD−, RPMI
  MIC: 4 µg/mL (≈ 5.35 µM)
P. aeruginosa (PA); strain 399, efflux AB − EF−, MHB
  MIC: 16 µg/mL (≈ 21.4 µM)
P. aeruginosa (PA); strain 399, efflux AB − EF−, RPMI
  MIC: 4 µg/mL (≈ 5.35 µM)
P. aeruginosa (PA); strain 400, efflux XY−, MHB
  MIC: 16 µg/mL (≈ 21.4 µM)
P. aeruginosa (PA); strain 400, efflux XY−, RPMI
  MIC: 4 µg/mL (≈ 5.35 µM)
P. aeruginosa (PA); strain 401, ompH−, MHB
  MIC: 8 µg/mL (≈ 10.7 µM)
P. aeruginosa (PA); strain 401, ompH−, RPMI
  MIC: 2 µg/mL (≈ 2.67 µM)
P. aeruginosa (PA); strain 403, efflux AB − CD − EF − XY−, MHB
  MIC: 16 µg/mL (≈ 21.4 µM)
P. aeruginosa (PA); strain 403, efflux AB − CD − EF − XY−, RPMI
  MIC: 4 µg/mL (≈ 5.35 µM)
P. aeruginosa (PA); strain 405, efflux AB − CD − EF − XY−, MHB
  MIC: 8 µg/mL (≈ 10.7 µM)
P. aeruginosa (PA); strain 405, efflux AB − CD − EF − XY−, RPMI
  MIC: 4 µg/mL (≈ 5.35 µM)
P. aeruginosa (PA); strain 434, efflux AB + CD + XY+, MHB
  MIC: 512 µg/mL
P. aeruginosa (PA); strain 434, efflux AB + CD + XY+, RPMI
  MIC: 128 µg/mL
P. aeruginosa (PA); strain PAO1, REFERENCE, MHB
  MIC: 512 µg/mL (≈ 685 µM)
P. aeruginosa (PA); strain PAO1, REFERENCE, RPMI
  MIC: 32 µg/mL (≈ 42.8 µM)
IL-8 (CXCL8) release; PMA-differentiated U937 cells, read-out: IC50, LPS-induced IL-8 (CXCL8) release
  IC50: 506 µM
IL-8 (CXCL8) release; at a higher concentration (333 μM)
  effect on IL-8 production: modest effects
[1]; read-out: MIC50
  MIC50: ≥ 32 µg/mL
[1]; read-out: MIC90
  MIC90: ≥ 32 µg/mL
